# Key:
# [1] = test system: dihydrodipicolinate synthase (DHPS); settings: cited from earlier work
# E. coli DHPS = E. coli DHPS (Escherichia coli, UniProt P0A6L2); settings: read-out: I50 of E. coli DHPS for lysine; cited from earlier work
# DHPS = DHPS enzyme activity in transgenic tubers (O-aminobenzaldehyde method); assay type: biochemical; settings: transformed (mutant DHPS) versus control potato tubers
# Protocol: Microtubers or mature tubers were homogenised with mortar and pestle in an equal volume of cold 100 mM Tris-HCl pH 7.5 containing 2 mM EDTA, 1.4% sodium ascorbate, 1 mM phenylmethylsulphonilfluoride and 0.5 Tg/ml leupeptin. Following 5 min. centrifugation (16,000 g at 4° C.) the supernatant is collected. DHPS activity was measured using the O-aminobenzaldehyde (O-ABA) method of Yugari and Gilvarg (Yugari, Y. and Gilvarg, C. (1965) J. Biol. Chem. 240: 4710-4716).
# Chain of E. coli DHPS (P0A6L2 whole entry): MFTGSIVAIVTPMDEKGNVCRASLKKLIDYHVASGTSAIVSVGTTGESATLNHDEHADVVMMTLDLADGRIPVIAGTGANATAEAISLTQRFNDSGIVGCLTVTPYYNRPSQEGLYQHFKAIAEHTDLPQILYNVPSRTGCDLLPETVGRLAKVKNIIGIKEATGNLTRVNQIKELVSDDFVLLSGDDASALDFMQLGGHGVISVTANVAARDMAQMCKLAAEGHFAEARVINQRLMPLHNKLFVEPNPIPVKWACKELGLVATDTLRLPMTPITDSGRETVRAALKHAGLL
Structure (SMILES),sensitivity of plant DHPS to lysine inhibition relative to E. coli DHPS ([1]; more sensitive than E. coli DHPS),sensitivity of plant DHPS to lysine inhibition relative to plant lysine-sensitive AKs ([1]; more sensitive than plant lysine-sensitive AKs),IC50 (E. coli DHPS) [µM],AEC sensitivity of DHPS activity (DHPS)
NCCCC[C@H](N)C(=O)O [lysine],about 100 fold,about 10 fold,~1000,
"NCCSC[C@H](N)C(=O)O [AEC, S-(2-aminoethyl)-L-cysteine]",,,,reduced
